# Results taken from patent US5140040A, “1-aminomethyl-1,2,3,4-tetrahydronaphthalenes” (Abbott Laboratories, priority 1991, dated 1992).
# Structures can show the parent of a compound that is named as a salt.
# Experiments:
# alpha-2-receptor = assay: Radioligand binding, alpha-2 adrenoceptor, rat cerebral cortices, [^3 H]-rauwolscine; conditions: for Ki: rat cerebral cortices, [^3 H]-rauwolscine; for alpha-2 - Selectivity Ki alpha-1/Ki alpha 2: ratio of Ki alpha-1 to Ki alpha-2
# Description: (§1) The compounds were assessed for alpha-adrenergic receptor subtype selectivity by use of radioligand binding techniques as described previously (DeBernardis et.al. J. Med. Chem. 28, 1398 (1985)).
# alpha-1-receptor = molecular target: T1, alpha-1-receptor (Rattus norvegicus, UniProt P15823); assay: Radioligand binding, alpha-1 adrenoceptor, rat liver homogenates, [^3 H]-prazosin
# T1 construct: rat liver homogenates; from tissue; host or cells: rat liver homogenates
# T1 sequence (P15823 1-515): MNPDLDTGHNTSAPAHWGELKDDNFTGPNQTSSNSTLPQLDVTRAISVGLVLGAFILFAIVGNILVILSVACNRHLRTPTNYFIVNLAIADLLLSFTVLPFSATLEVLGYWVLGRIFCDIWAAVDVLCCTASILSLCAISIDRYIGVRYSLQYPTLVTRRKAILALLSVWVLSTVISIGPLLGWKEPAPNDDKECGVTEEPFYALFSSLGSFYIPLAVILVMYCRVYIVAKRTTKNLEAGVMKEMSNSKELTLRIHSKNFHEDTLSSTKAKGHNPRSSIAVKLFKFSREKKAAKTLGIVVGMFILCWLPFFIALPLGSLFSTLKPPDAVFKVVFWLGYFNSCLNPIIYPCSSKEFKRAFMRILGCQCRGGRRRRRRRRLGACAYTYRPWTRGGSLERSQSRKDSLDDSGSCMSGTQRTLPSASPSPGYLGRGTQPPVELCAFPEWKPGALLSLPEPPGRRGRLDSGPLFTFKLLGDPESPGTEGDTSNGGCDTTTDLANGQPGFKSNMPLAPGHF
# Description: as §1
# dopamine uptake = assay: Biogenic amine uptake inhibition, rat brain synaptosomes, tritiated dopamine; format: biochemical, Sprague-Dawley derived rats; conditions: tritiated amine 0.1 μM, 37° C., 4 minutes
# Excerpt: (§2) Sprague-Dawley derived rats of either sex, weighing about 180-250 g, were killed by decapitation. The brains were immediately removed, placed on a glass plate chilled over crushed ice and dissected according to a modification of the method of Glowinski and Iversen (J. Neurochem. 13, 655-669, 1966). First, the rhombencephalon was separated by transverse section and discarded. The remaining tissue was bisected by a midline sagittal cut. The hypothalamus was removed using the anterior and posterior reference points, respectively. The hippocampus was peeled away and discarded and the striata were exposed and removed. Frontal cortical tissue was dissected from remaining brain structures. The hypothalamus and striatum each weighed about 100 mg , the striata 50-75 mg, and the cortex weighed up to 800 mg. The tissues were placed in a cold Potter-Elvehjem glass homogenizer with 5 (cortex) or 10 (hypothalamus) and 20 (striatum) volumes of ice-cold 0.32M sucrose, pH 7.0 and homogenized by hand. The homogenate was centrifuged at 2500 rpm in a GLC centrifuge for 10 minutes in a refrigerated room. The supernatant fraction containing the synaptosomes was decanted, mixed thoroughly, and kept on crushed ice for use in the uptake studies.
# (§3) Uptake studies were conducted according to the method of Synder and Coyle (J. PharmacoI. Exp. Ther. 165, 78-86, 1969) with minor modifications. Usually a 0.1 ml aliquot of the synaptosomal preparation was incubated in a mixture of 0.75 ml of modified Krebs-Ringer buffer, 0.05 ml of the drug being evaluated for uptake inhibition, and 0.1 ml of a 1 μM tritiated amine (norepinephrine, serotonin or dopamine) solution (final concentration 0.1 μM) for a total volume of 1 ml. The modified Krebs-Ringer bicarbonate buffer used in these studies contained 118 mM NaCl, 4 mM KCl, 1.3 mM CaCl2, 1.12 mM KH2 PO4, 1.2 mM MgSO4 and 24 mM NaHCO3, with the addition of 5 mM glucose, 0.15 mM disodium EDTA, 12.5 μM pargyline and 1 mM ascorbic acid. Uptake was initiated by the addition of the tritiated amine, and the mixture was incubated at 37° C. in a Dubnoff Metabolic Shaking Incubator for 4 minutes. Control incubations without the test drug were conducted at 37° C. to determine total uptake and non-specific binding at 0° C. to correct for the diffusion of the tritiated amine into the synaptosomes and/or binding. Filtration was used to terminate uptake and collect the synaptosomes. In the filtration technique the incubation mixture was diluted with 4 ml of ice-cold 0.9% NaCl and filtered through GF/B glass microfiber filters (Whatman) under gentle vacuum. The filters were subsequently washed four times with 5 ml of ice-cold 0.9% NaCl and transferred to glass scintillation vials. Soluene® ([…]) and IONIC FLUOR (Packard) scintillation fluid (3.5 ml) were added and the vials were placed in a mechanical shaker for 1 hour. All samples were cold and dark adapted and counted in a TriCarb® (Packarad) Model 460 Liquid Scintillation Spectrometer. Corrections were automatically made for quenching by the external standard method and for luminescence. All results (see Table 2) are based on total radioactivity.
# serotonin uptake = assay: Biogenic amine uptake inhibition, rat brain synaptosomes, tritiated serotonin; format: biochemical, Sprague-Dawley derived rats; conditions: tritiated amine 0.1 μM, 37° C., 4 minutes
# Excerpt: as §2, §3
# norepinephrine uptake = assay: Biogenic amine uptake inhibition, rat brain synaptosomes, tritiated norepinephrine; format: biochemical, Sprague-Dawley derived rats; conditions: tritiated amine 0.1 μM, 37° C., 4 minutes, read-out: Biogenic Amine Uptake Inhibition IC50 Norephinephrine
# Excerpt: as §2, §3
# intraocular pressure = assay: Effect of topically administered compounds on intraocular pressure of rabbits; format: in vivo, New Zealand rabbits; conditions: 0.3% soln., 0.1 ml topical
# Description: The intraocular pressure lowering effects of the compounds were evaluated in unanesthetized male albino, New Zealand rabbits weighing 2.0 to 2.5 kg. The rabbits were placed in Plas Labs restraining devices for the duration of the experiment. Intraocular pressure (IOP) was measured with a Bausch and Lomb Applamatic Tonometer and recorded as the average of three individual readings at each time point in the experiment. Baseline IOP values were established at three time points separated by 30 minutes. Each compound or vehicle was applied topically to the cornea in a volume of 0.1 ml to one eye in each six rabbits. The contralateral eye was untreated. IOP was recorded at 5, 15, 30, 60 and 90 minutes after dosing.
Molecule,Ki (alpha-2-receptor) [µM],alpha-2 - Selectivity Ki alpha-1/Ki alpha 2 (alpha-2-receptor),Ki (alpha-1-receptor) [µM],IC50 (dopamine uptake) [µM],IC50 (serotonin uptake) [µM],IC50 (norepinephrine uptake) [µM],% Change in Intraocular Pressure After Treatment Compared to Untreated Eye (intraocular pressure; 5 minutes) [%],% Change in Intraocular Pressure After Treatment Compared to Untreated Eye (intraocular pressure; 15 minutes) [%],% Change in Intraocular Pressure After Treatment Compared to Untreated Eye (intraocular pressure; 30 minutes) [%],% Change in Intraocular Pressure After Treatment Compared to Untreated Eye (intraocular pressure; 60 minutes) [%],% Change in Intraocular Pressure After Treatment Compared to Untreated Eye (intraocular pressure; 90 minutes) [%]
5-Methoxy-1-(3-phenylpyrrolidino-1-methyl) indane hydrochloride [Example 152],0.0048,11,0.051,–,–,–,–,–,–,–,–
"8-Fluoro-5,6-methylenedioxy-1-(3-phenylpyrrolidino1-methyl) tetralin hydrochloride [Example 160]",–,–,–,2.93,1.84,0.991,–,–,–,–,–
"COc1ccc2c(c1)CCCC2CN(C)CCc1cccs1 (stereo not shown) [Example 5, 1-((N-Methylamino)methyl-N-(2-(2-thienyl)ethyl))-6-methoxy tetralin methanesulfonate]",0.0008,725,–,6.53,5.92,1.04,–,–,–,–,–
"COc1ccc2c(c1)CCCC2CN(C)CCc1cccc(F)c1 (stereo not shown) [Example 6b, 1-((N-methylamino)methyl-N-(2-(m-fluorophenyl)ethyl))-6-methoxy tetralin hydrochloride]",0.005,236,–,10.1,1.95,0.574,–,–,–,–,–
"CN(CCc1cccc(F)c1)CC1CCCc2cc(O)ccc21 (stereo not shown) [Example 10, 1-((N-Methylamino)methyl-N-(2-(m-fluorophenyl)ethyl))6-hydroxy tetralin hydrochloride]",–,–,–,–,–,–,-45,-31,-25,-36,-23
"CN(CCc1ccccc1)CC1CCCc2cc(O)ccc21 (stereo not shown) [Example 11, 1-((N-Methylamino)methyl-N-(2-phenylethyl))-6-hydroxy tetralin hydrobromide]",–,–,–,10.1,7.23,1.74,–,–,–,–,–
"COc1cccc2c1CCCC2CN(C)CCc1cccs1 (stereo not shown) [Example 19, 1-((N-Methylamino)methyl-N-(2-(2-thienyl)ethyl))-5-methoxy tetralin methanesulfonate]",–,–,–,6.09,0.411,0.498,–,–,–,–,–
"COc1cccc2c1CCCC2CN(C)CCc1cccc(F)c1 (stereo not shown) [Example 20c, 1-((N-methylamino)methyl-N-(2-(m-fluorophenyl)ethyl))-5-methoxytetralinmethanesulfonate]",–,–,–,9.17,0.161,1.58,–,–,–,–,–
"CN(CCc1cccs1)CC1CCCc2c1ccc1c2OCCO1 (stereo not shown) [Example 30, 1-((N-Methylamino)methyl-N-(2-(2-thienyl)ethyl))-5,6-ethylenedioxy tetralin hydrochloride]",0.004,118,–,8.08,1.34,0.624,–,–,–,–,–
"Cc1cc(O)c(O)c2c1C(CN(C)CCc1cccc(F)c1)CCC2 (stereo not shown) [Example 34, 1-(N-Methylamino)methyl-N-(2-(m-fluorophenyl)ethyl))-5,6-dihydroxy-8-methyltetralin hydrobromide]",0.0026,127,–,9.4,2.2,0.365,–,–,–,–,–
"CCN(CCc1cccs1)CC1CCCc2cc(OC)ccc21 (stereo not shown) [Example 41, 1-((N-Ethylamino)methyl-N-(2-(2-thienyl)ethyl))-6-methoxy tetralin hydrochloride]",0.0029,326,–,6.03,2.28,0.2,–,–,–,–,–
"CCN(CCc1ccsc1)CC1CCCc2cc(OC)ccc21 (stereo not shown) [Example 44, 1-N-Ethylamino)methyl-N-(2-(3-thienyl)ethyl))-6-methoxy tetralin hydrochloride]",0.0056,105,–,8.64,3.29,0.357,–,–,–,–,–
"CN(CCc1cccs1)CC1CCCc2cc(Cl)ccc21 (stereo not shown) [Example 49, 1-((N-Methylamino)meth-N-(2-(2-thienyl)ethyl))-6-chloro tetralin hydrochloride]",0.01,113,1.13,–,–,–,–,–,–,–,–
"CCN(CCc1cccc(F)c1)CC1CCCc2c(OC)cccc21 (stereo not shown) [Example 72, 1-((N-Ethylamino)methyl-N-(2-(m-fluorophenyl)ethyl))-5-methoxy tetralin hydrochloride]",–,–,–,6.83,0.466,0.137,–,–,–,–,–
"CCN(CCc1cccs1)CC1CCCc2c(OC)cccc21 (stereo not shown) [Example 73, 1-((N-Ethylamino)methyl-N-(2-(2-thienyl)ethyl))-5-methoxy tetralin hydrochloride]",–,–,–,8.43,0.84,0.336,–,–,–,–,–
"c1ccc(C2CCN(CC3CCCc4c3ccc3c4OCO3)C2)cc1 (stereo not shown) [Example 143a, 5,6-Methylenedioxy-1-(3-phenylpyrrolidino-1-methyl) tetralin methanesulfonate]",0.0012,43,–,8.72,4.03,1.1,–,–,–,–,–
"CCN(CCc1cccc(F)c1)CC1CCCc2c1ccc1c2OCO1 (stereo not shown) [Example 165, 1-((N-Ethylamino)methyl-N-(2 m-fluorophenethyl))-5,6-methylenedioxy tetralin hydrochloride]",0.0035,132,–,6.67,1.24,0.398,–,–,–,–,–
"CN(CCc1cccc(F)c1)CC1CCCc2c1ccc1c2OCO1 (stereo not shown) [Example 166, 1-((N-Methylamino)methyl-N-(2-m-fluorophenethyl))-5,6-methylenedioxy tetralin methanesulfonate]",0.0045,134,–,8.77,0.4,1.52,–,–,–,–,–
"Fc1ccccc1C1CCN(CC2CCCc3c2ccc2c3OCO2)C1 (stereo not shown) [Example 176a, 5,6-Methylenedioxy-1-(3-(o-fluorophenyl)pyrrolidino-1-methyl) tetralin methanesulfonate]",0.0006,132,–,7.31,2.83,1.56,–,–,–,–,–
"CN(C)CCCN1c2ccccc2CCc2ccccc21 [Imipramine, reference compound]",–,–,–,125,0.778,0.346,–,–,–,–,–
